# Experimental data as given in patent US10227331B2 (priority 2015, dated 2019).
# Columns and labels:
# IMP-1 = IMP-1 (Serratia marcescens, UniProt P52699); assay: biochemical; type: biochemical; settings: CCF2-FA substrate, 2 hours at 25° C; read-out: IMP-1 IC50
# Procedure, shortened: (§1)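 Class B activity is measured in the presence of compound by fluorescence with CCF2-FA after a 2-hour incubation at 25° C. IC50 is taken from a 4-parameter fit of semi-logarithmic dose-response data.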
# NDM-1 = NDM-1 (Klebsiella pneumoniae, UniProt C7C422); assay: biochemical; type: biochemical; settings: CCF2-FA substrate, 2 hours at 25° C; read-out: NDM-1 IC50
# NDM-1, sequence (C7C422 whole entry, looked up, species assumed): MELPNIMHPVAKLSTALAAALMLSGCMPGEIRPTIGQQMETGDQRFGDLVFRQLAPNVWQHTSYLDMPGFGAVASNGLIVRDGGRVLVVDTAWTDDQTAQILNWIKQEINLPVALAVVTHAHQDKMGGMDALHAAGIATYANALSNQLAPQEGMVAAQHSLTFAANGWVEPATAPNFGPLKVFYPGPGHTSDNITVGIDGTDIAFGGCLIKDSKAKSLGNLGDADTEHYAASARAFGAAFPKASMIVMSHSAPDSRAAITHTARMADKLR
# Procedure, shortened: as §1
# [1] = test system: P. aeruginosa expressing IMP-1, efflux− (MB9799); assay: Efflux: concentration of MBL inhibitor which restores susceptibility to imipenem; type: cell-based, Pseudomonas aeruginosa; settings: imipenem at 2 μg/mL, in the presence of a class A, C, D serine β-lactamase inhibitor closely related to relebactam
# Source text: (§2) The strain background is Pseudomonas aeruginosa PAO1.
# VIM-1 = VIM-1 (Pseudomonas aeruginosa (strain ATCC 15692 / DSM 22644 / CIP 104116 / JCM 14847 / LMG 12228 / 1C / PRS 101 / PAO1), UniProt A0A0F7KYQ8); assay: biochemical; settings: CCF2-FA substrate, 2 hours at 25° C
# Procedure, shortened: as §1
# [2] = test system: P. aeruginosa expressing IMP-1, efflux+ (MB9798); type: cell-based, Pseudomonas aeruginosa; settings: for P. aeruginosa expressing IMP-1, efflux+ (MB9798) MITC95: imipenem at 2 μg/mL, in the presence of a class A, C, D serine β-lactamase inhibitor closely related to relebactam; for Efflux ratio: ratio MITC95 PA_9798/MITC95 PA_9799
# Source text: as §2
# [3] = test system: Escherichia coli expressing NDM-1 (CLB30005, CLB30016); type: cell-based; settings: with imipenem 1 μg/ml; 95% inhibition of bacterial growth
# Procedure, shortened: (§3)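 Clinical strains grown overnight on blood agar, then diluted 1:100 in 1.1× CAMHB and exposed to test compound with imipenem at 1 μg/ml. Incubation was 22–24 h at 35° C; growth was read by absorbance to find the compound concentration restoring imipenem susceptibility.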
# [4] = test system: Serratia marcescens expressing IMP-1 (CL5741); type: cell-based; settings: with imipenem 1 μg/ml; 95% inhibition of bacterial growth
# Procedure, shortened: as §3
# [5] = test system: Klebsiella pneumoniae expressing VIM-1 (IHMA599644); type: cell-based; settings: with imipenem 1 μg/ml; 95% inhibition of bacterial growth
# Procedure, shortened: as §3
# IMP-1, sequence (P52699 whole entry, looked up, species assumed): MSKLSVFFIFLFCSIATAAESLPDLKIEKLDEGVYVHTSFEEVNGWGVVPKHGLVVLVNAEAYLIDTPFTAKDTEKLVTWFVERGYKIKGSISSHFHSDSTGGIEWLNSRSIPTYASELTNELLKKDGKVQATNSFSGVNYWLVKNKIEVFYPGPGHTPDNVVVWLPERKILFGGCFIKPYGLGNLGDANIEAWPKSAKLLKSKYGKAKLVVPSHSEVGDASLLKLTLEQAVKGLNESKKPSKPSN
smiles,measurement,setting,value
"NC(=O)c1cn2cccc(-c3ccc(S(=O)(=O)C4CNC4)c(S(N)(=O)=O)c3-c3nnn[nH]3)c2n1 [Example 59, 8-(4-(azetidin-3-ylsulfonyl)-3-sulfamoyl-2-(1H-tetrazol-5-yl)phenyl)imidazo[1,2-a]pyridine-2-carboxamide]",IC50,IMP-1,1.44 nM
same,IC50,NDM-1,0.131 nM
same,"P. aeruginosa expressing IMP-1, efflux− (MB9799) MITC95",[1],1.563 µM
same,IC50,VIM-1,0.187 nM
same,"P. aeruginosa expressing IMP-1, efflux+ (MB9798) MITC95",[2],3.125 µM
same,Efflux ratio,[2],2.00
same,Escherichia coli expressing NDM-1 (CLB30016) MITC95,[3],3.125 µM
same,Serratia marcescens expressing IMP-1 (CL5741) MITC95,[4],3.125 µM
same,Klebsiella pneumoniae expressing VIM-1 (IHMA599644) MITC95,[5],3.125 µM
"NS(=O)(=O)c1c(S(=O)(=O)C2CNC2)ccc(-c2cccn3cncc23)c1-c1nnn[nH]1 [Example 60, 6-(azetidin-3-ylsulfonyl)-3-(imidazo[1,5-a]pyridin-8-yl)-2-(1H-tetrazol-5-yl)benzenesulfonamide]",IC50,IMP-1,2.35 nM
same,IC50,NDM-1,0.811 nM
same,"P. aeruginosa expressing IMP-1, efflux− (MB9799) MITC95",[1],3.125 µM
same,IC50,VIM-1,0.408 nM
same,"P. aeruginosa expressing IMP-1, efflux+ (MB9798) MITC95",[2],12.5 µM
same,Efflux ratio,[2],4.00
same,Escherichia coli expressing NDM-1 (CLB30016) MITC95,[3],1.563 µM
same,Serratia marcescens expressing IMP-1 (CL5741) MITC95,[4],3.125 µM
same,Klebsiella pneumoniae expressing VIM-1 (IHMA599644) MITC95,[5],6.25 µM
"NS(=O)(=O)c1c(S(=O)(=O)C2CNC2)ccc(-c2cccn3cc(C(=O)O)nc23)c1-c1nnn[nH]1 [Example 61, 8-(4-(Azetidin-3-ylsulfonyl)-3-sulfamoyl-2-(1H-tetrazol-5-yl)phenyl)imidazo[1,2-a]pyridine-2-carboxylic Acid]",IC50,IMP-1,2.22 nM
same,IC50,NDM-1,0.254 nM
same,"P. aeruginosa expressing IMP-1, efflux− (MB9799) MITC95",[1],12.5 µM
same,IC50,VIM-1,0.677 nM
same,"P. aeruginosa expressing IMP-1, efflux+ (MB9798) MITC95",[2],12.5 µM
same,Efflux ratio,[2],1.00
same,Escherichia coli expressing NDM-1 (CLB30016) MITC95,[3],12.5 µM
same,Serratia marcescens expressing IMP-1 (CL5741) MITC95,[4],6.25 µM
same,Klebsiella pneumoniae expressing VIM-1 (IHMA599644) MITC95,[5],25 µM
"N=C(N)c1nc2c(-c3ccc(S(=O)(=O)C4CNC4)c(S(N)(=O)=O)c3-c3nnn[nH]3)cccc2s1 [Example 62, 4-(4-(Azetidin-3-ylsulfonyl)-3-sulfamoyl-2-(1H-tetrazol-5-yl)phenyl)benzo[d]thiazole-2-carboximidamide]",IC50,IMP-1,2.63 nM
same,IC50,NDM-1,0.345 nM
same,"P. aeruginosa expressing IMP-1, efflux− (MB9799) MITC95",[1],0.7813 µM
same,IC50,VIM-1,0.396 nM
same,"P. aeruginosa expressing IMP-1, efflux+ (MB9798) MITC95",[2],1.563 µM
same,Efflux ratio,[2],2.00
same,Escherichia coli expressing NDM-1 (CLB30016) MITC95,[3],0.3906 µM
same,Serratia marcescens expressing IMP-1 (CL5741) MITC95,[4],1.563 µM
same,Klebsiella pneumoniae expressing VIM-1 (IHMA599644) MITC95,[5],1.563 µM
"NS(=O)(=O)c1c(SC2CNC2)ccc(-c2cccc3nccn23)c1-c1nnn[nH]1 [Example 63, 6-(Azetidin-3-ylthio)-3-(imidazo[1,2-a]pyridin-5-yl)-2-(1H-tetrazol-5-yl)benzenesulfonamide]",IC50,IMP-1,125 nM
same,IC50,NDM-1,5.91 nM
same,"P. aeruginosa expressing IMP-1, efflux− (MB9799) MITC95",[1],1.781 µM
same,IC50,VIM-1,30.5 nM
same,"P. aeruginosa expressing IMP-1, efflux+ (MB9798) MITC95",[2],50 µM
same,Efflux ratio,[2],28.07
same,Escherichia coli expressing NDM-1 (CLB30016) MITC95,[3],1 µM
same,Serratia marcescens expressing IMP-1 (CL5741) MITC95,[4],3.125 µM
same,Klebsiella pneumoniae expressing VIM-1 (IHMA599644) MITC95,[5],3.125 µM
"NCCS(=O)(=O)c1ccc(-c2cccn3ccnc23)c(-c2nnn[nH]2)c1S(N)(=O)=O [Example 64, 6-((2-Aminoethyl)sulfonyl)-3-(imidazo[1,2-a]pyridin-8-yl)-2-(1H-tetrazol-5-yl)benzenesulfonamide]",IC50,IMP-1,0.359 nM
same,IC50,NDM-1,1.06 nM
same,"P. aeruginosa expressing IMP-1, efflux− (MB9799) MITC95",[1],1.563 µM
same,IC50,VIM-1,0.339 nM
same,"P. aeruginosa expressing IMP-1, efflux+ (MB9798) MITC95",[2],1.563 µM
same,Efflux ratio,[2],1.00
same,Escherichia coli expressing NDM-1 (CLB30016) MITC95,[3],1.563 µM
same,Serratia marcescens expressing IMP-1 (CL5741) MITC95,[4],1.563 µM
same,Klebsiella pneumoniae expressing VIM-1 (IHMA599644) MITC95,[5],3.125 µM
"Nc1cn2cccc(-c3ccc(S(=O)(=O)C4CNC4)c(S(N)(=O)=O)c3-c3nnn[nH]3)c2n1 [Example 65, 3-(2-Aminoimidazo[1,2-a]pyridin-8-yl)-6-(azetidin-3-ylsulfonyl)-2-(H-tetraazol-5-yl)benzenesulfonamide]",IC50,IMP-1,2.5 nM
same,IC50,NDM-1,0.784 nM
same,"P. aeruginosa expressing IMP-1, efflux− (MB9799) MITC95",[1],6.25 µM
same,IC50,VIM-1,0.627 nM
same,"P. aeruginosa expressing IMP-1, efflux+ (MB9798) MITC95",[2],25 µM
same,Efflux ratio,[2],4.00
same,Escherichia coli expressing NDM-1 (CLB30016) MITC95,[3],1.563 µM
same,Serratia marcescens expressing IMP-1 (CL5741) MITC95,[4],6.25 µM
same,Klebsiella pneumoniae expressing VIM-1 (IHMA599644) MITC95,[5],12.5 µM
"NS(=O)(=O)c1c(S(=O)(=O)C2CNC2)ccc(-c2cccc3nccn23)c1-c1nnn[nH]1 [Example 66, 6-(Azetidin-3-ylsulfonyl)-3-(imidazo[1,2-a]pyridin-5-yl)-2-(1H-tetrazol-5-yl)benzenesulfonamide]",IC50,IMP-1,9.67 nM
same,IC50,NDM-1,0.591 nM
same,"P. aeruginosa expressing IMP-1, efflux− (MB9799) MITC95",[1],6.25 µM
same,IC50,VIM-1,0.569 nM
same,"P. aeruginosa expressing IMP-1, efflux+ (MB9798) MITC95",[2],50 µM
same,Efflux ratio,[2],8.00
same,Escherichia coli expressing NDM-1 (CLB30016) MITC95,[3],3.125 µM
same,Serratia marcescens expressing IMP-1 (CL5741) MITC95,[4],6.25 µM
same,Klebsiella pneumoniae expressing VIM-1 (IHMA599644) MITC95,[5],12.5 µM
"NC(=O)c1ccc(-c2ccc(S(=O)(=O)C3CNC3)c(S(N)(=O)=O)c2-c2nnn[nH]2)c(N)n1 [Example 67, 6-Amino-5-(4-(azetidin-3-ylsulfonyl)-3-sulfamoyl-2-(1H-tetrazol-5-yl)phenyl)picolinamide]",IC50,IMP-1,1.32 nM
same,IC50,NDM-1,0.376 nM
same,"P. aeruginosa expressing IMP-1, efflux− (MB9799) MITC95",[1],1.563 µM
same,IC50,VIM-1,0.333 nM
same,"P. aeruginosa expressing IMP-1, efflux+ (MB9798) MITC95",[2],3.125 µM
same,Efflux ratio,[2],2.00
same,Escherichia coli expressing NDM-1 (CLB30016) MITC95,[3],1.563 µM
same,Serratia marcescens expressing IMP-1 (CL5741) MITC95,[4],3.125 µM
same,Klebsiella pneumoniae expressing VIM-1 (IHMA599644) MITC95,[5],3.125 µM
"NS(=O)(=O)c1c(S(=O)(=O)C2CNC2)ccc(-c2cccc3sc(C(=O)O)nc23)c1-c1nnn[nH]1 [Example 68, 4-(4-(azetidin-3-ylsulfonyl)-3-sulfamoyl-2-(1H-tetrazol-5-yl)phenyl)benzo[d]thiazole-2-carboxylic Acid]",IC50,IMP-1,0.356 nM
same,IC50,NDM-1,0.0709 nM
same,"P. aeruginosa expressing IMP-1, efflux− (MB9799) MITC95",[1],3.125 µM
same,IC50,VIM-1,0.256 nM
same,"P. aeruginosa expressing IMP-1, efflux+ (MB9798) MITC95",[2],6.25 µM
same,Efflux ratio,[2],2.00
same,Escherichia coli expressing NDM-1 (CLB30016) MITC95,[3],6.25 µM
same,Serratia marcescens expressing IMP-1 (CL5741) MITC95,[4],6.25 µM
same,Klebsiella pneumoniae expressing VIM-1 (IHMA599644) MITC95,[5],12.5 µM
"NCCS(=O)(=O)c1ccc(-c2ccc3[nH]c(N)nc3c2)c(-c2nn[nH]n2)c1S(N)(=O)=O [Example 69, 3-(2-amino-1H-benzo[d]imidazol-5-yl)-6-(2-aminoethylsulfonyl)-2-(2H-tetrazol-5-yl)benzenesulfonamide]",IC50,IMP-1,2.77 nM
same,IC50,NDM-1,1.25 nM
same,"P. aeruginosa expressing IMP-1, efflux− (MB9799) MITC95",[1],0.4453 µM
same,IC50,VIM-1,0.485 nM
same,"P. aeruginosa expressing IMP-1, efflux+ (MB9798) MITC95",[2],3.125 µM
same,Efflux ratio,[2],7.02
same,Escherichia coli expressing NDM-1 (CLB30016) MITC95,[3],0.25 µM
same,Serratia marcescens expressing IMP-1 (CL5741) MITC95,[4],0.4453 µM
same,Klebsiella pneumoniae expressing VIM-1 (IHMA599644) MITC95,[5],0.8906 µM
"NCCS(=O)(=O)c1ccc(-c2cccc3nc(N)[nH]c23)c(-c2nn[nH]n2)c1S(N)(=O)=O [Example 70, 3-(2-amino-3H-benzo[d]imidazol-4-yl)-6-(2-aminoethylsulfonyl)-2-(2H-tetrazol-5-yl)benzenesulfonamide]",IC50,IMP-1,0.796 nM
same,IC50,NDM-1,0.251 nM
same,"P. aeruginosa expressing IMP-1, efflux− (MB9799) MITC95",[1],0.4453 µM
same,IC50,VIM-1,0.37 nM
same,"P. aeruginosa expressing IMP-1, efflux+ (MB9798) MITC95",[2],0.4453 µM
same,Efflux ratio,[2],1.00
same,Escherichia coli expressing NDM-1 (CLB30016) MITC95,[3],0.25 µM
same,Serratia marcescens expressing IMP-1 (CL5741) MITC95,[4],0.6406 µM
same,Klebsiella pneumoniae expressing VIM-1 (IHMA599644) MITC95,[5],0.8906 µM
"NCCS(=O)(=O)c1ccc(-c2cccc3ccc(N)nc23)c(-c2nn[nH]n2)c1S(N)(=O)=O [Example 71, 6-(2-aminoethylsulfonyl)-3-(2-aminoquinolin-8-yl)-2-(2H-tetrazol-5-yl)benzenesulfonamide]",IC50,IMP-1,0.129 nM
same,IC50,NDM-1,0.115 nM
same,"P. aeruginosa expressing IMP-1, efflux− (MB9799) MITC95",[1],0.7813 µM
same,IC50,VIM-1,0.315 nM
same,"P. aeruginosa expressing IMP-1, efflux+ (MB9798) MITC95",[2],0.7813 µM
same,Efflux ratio,[2],1.00
same,Escherichia coli expressing NDM-1 (CLB30016) MITC95,[3],0.3906 µM
same,Serratia marcescens expressing IMP-1 (CL5741) MITC95,[4],0.7813 µM
same,Klebsiella pneumoniae expressing VIM-1 (IHMA599644) MITC95,[5],1.563 µM
